# Laboratory results published in US20240398818A1, “Cardiosafe Antidiabetic Therapy” (priority 2018, published 2024).
# Assays:
# [1] = system: adult patients with early type 2 diabetes mellitus and increased CV risk or established complications; experiment: Cardiovascular Safety Trial (linagliptin versus glimepiride); format: in vivo
# Experimental: The effect of linagliptin on cardiovascular risk in adult patients with early type 2 diabetes mellitus and increased CV risk or established complications was evaluated in this Cardiovascular Safety Trial, a multi-center, multi-national, randomized, double-blind parallel group trial. The trial compared the risk of experiencing a major adverse cardiovascular event (MACE) between linagliptin and glimepiride when these were added to standard of care (including background therapy with metformin) based on regional standards for HbA1c and CV risk factors. The trial was event driven and patients were followed until at least 631 primary outcome events accrued.
# A total of 6033 patients were treated (linagliptin 5 mg=3023; glimepiride 1 mg to 4 mg=3010) and followed for a median of 6.25 years (median time on treatment 5.9 years). Approximately 73% of the study population was Caucasian, 18% was Asian, and 5% was Black. The mean age was 64 years and 60% were male.
# At baseline, disease characteristics were balanced. […] The trial population included 2030 (34%) patients ≥70 years of age, 2089 (35%) patients with cardiovascular disease, and 1130 (19%) patients with renal impairment with an eGFR <60 mL/min/1.73 m2 at baseline. Overall, the previous use of diabetes medications was balanced across treatment groups (metformin 83% continued as background therapy, sulfonylurea 28% discontinued prior to randomization), patients on insulin were excluded. The use of medications to reduce cardiovascular risk was also balanced (aspirin 47%, statins 65%, ACE inhibitors or ARBs 74%, beta blockers 39%, and calcium channel blockers 30%).
# The primary endpoint in this Cardiovascular Safety Trial was the time to first occurrence of three point (3P) MACE. A major adverse cardiac event was defined as a cardiovascular death or a nonfatal myocardial infarction (MI) or a nonfatal stroke. The statistical analysis plan tested for non-inferiority for the occurrence of 3P MACE. The key secondary endpoint evaluated the composite of treatment sustainability defined as the proportion of patients on study treatment, that maintain glycemic control (HbA1c≤7.0%) without need for additional antidiabetic drug therapy (rescue medication), without any moderate (symptomatic with glucose value <70 mg/dL) or severe (requiring assistance) hypoglycemic episodes, and without >2% weight gain from baseline.
# Cardiovascular Outcome Trial of Linagliptin Versus Glimepriride in Type 2 Diabetes—assessing long-term cardiovascular impact of linagliptin versus the sulphonylurea glimepiride in subjects with early type 2 diabetes and increased cardiovascular risk or established complications. […]
# Type 2 diabetes patient with insufficient glycemic control (naïve or currently treated (mono or dual therapy) with e.g. metformin and/or an alpha-glucosidase inhibitor (e.g. having HbA1c 6.5-8.5%), or currently treated (mono or dual therapy) with e.g. a sulphonylurea or glinide, with or without metformin or an alpha-glucosidase inhibitor (e.g. having HbA1c 6.5-7.5%)) and increased or high risk of cardiovascular events, e.g. defined as one or more of risk factors A), B), C) and D) indicated below, are randomized* and treated over a lengthy period (e.g. up to 432 weeks) with linagliptin (5 mg, q.d., optionally in combination with one or more other active substances, e.g. such as added to existing antidiabetic background) and compared with patients treated with the sulphonylurea glimepiride (1-4 mg once daily). * Upon randomization, if a patient is on a SU or glinide, this secretagogue therapy is discontinued and replaced with study medication. For patients not on a secretagogue, study medication is added to the existing regimen.
# Time to first occurrence of any of the following adjudicated components of the primary composite endpoint: […]
# [2] = system: patients with T2D; conditions: compared to placebo; cited from earlier work
# [3] = baseline to Final Visit, all observed cases
# [4] = baseline to Final Visit, observed cases including values after rescue medication
# [5] = both, human, in vivo, 5.9 years
# [6] = both, human, in vivo, 6.25 years
# [7] = component of secondary composite
# [8] = from end of titration (16 weeks) to final visit
# [9] = median follow-up 6.25 years, listed as glimepiride
smiles,measurement,setting,value
CCC1=C(C)CN(C(=O)NCCc2ccc(S(=O)(=O)NC(=O)N[C@H]3CC[C@H](C)CC3)cc2)C1=O [Glimepiride],patients with macroalbuminuria (>300 mg/g),[1]; at Final Visit,1.4%
same,patients with microalbuminuria (≥30 to ≤300 mg/g),[1]; at Final Visit,16.0%
same,patients with normal UACR (<30 mg/g),[1]; at baseline and at Final Visit,57.7%
same,"FPG, Change from baseline, adjusted mean",[1]; [3],19.7 mg/dL
same,"HBA1c, Change from baseline, adjusted mean",[1]; [3],0.15%
same,"Creatinine, Change from baseline, adjusted mean",[1]; [4],0.09 mg/dL
same,"HDL, Change from baseline, adjusted mean",[1]; [4],0.3 mg/dL
same,"LDL, Change from baseline, adjusted mean",[1]; [4],-6.5 mg/dL
same,"Total cholesterol, Change from baseline, adjusted mean",[1]; [4],-5.0 mg/dL
same,"Triglyceride, Change from baseline, adjusted mean",[1]; [4],5.2 mg/dL
same,"Urinary albumin, Change from baseline, adjusted mean",[1]; [4],45.2 mg/dL
same,"third key secondary endpoint of treatment sustainability (on medication, HbA1c≤7.0%, no rescue, no >2% weight gain), responders",[1]; between Visit 6 and Final Visit,14.1%
same,"Hospitalization for heart failure (HHF), Incidence Rate per 1000 PY","[1]; both, human, in vivo",5.3 per 1000 PY
same,"Hospitalization for heart failure (HHF), Number of Subjects","[1]; both, human, in vivo",92
same,"Patients with any moderate/severe hypoglycemic episodes, Number of Subjects","[1]; both, human, in vivo",791
same,"Patients with any moderate/severe hypoglycemic episodes, Subjects (%)","[1]; both, human, in vivo",27.5%
same,"Secondary CV composite (4P-MACE), Incidence Rate per 1000 PY","[1]; both, human, in vivo",23.7 per 1000 PY
same,rate of moderate or severe hypoglycemia,[1]; [5],30.9%
same,severe hypoglycemia (requiring assistance),[1]; [5],2.2%
same,"Hospitalization for heart failure (HHF), Subjects (%)",[1]; [6],3.1%
same,Premature discontinuation from trial medication due to adverse events,[1]; [6],17.4%
same,"Primary CV composite (3P-MACE), Incidence Rate per 1000 PY",[1]; [6],21.2 per 1000 PY
same,"all-cause mortality, incidence rate per 1000 years at risk",[1]; [6],18.4 per 1000 years at risk
same,"any adjudicated event (secondary CV endpoint), % of patients",[1]; [6],17.8%
same,"hospitalisation for heart failure combined with CV death, incidence rate per 1000 years at risk",[1]; [6],13.4 per 1000 years at risk
same,"hospitalisation for heart failure, incidence rate per 1000 years at risk",[1]; [6],5.3 per 1000 years at risk
same,"investigator-reported heart failure AEs, % of patients",[1]; [6],5.2%
same,"investigator-reported heart failure AEs, incidence rate per 1000 years at risk",[1]; [6],9.0 per 1000 years at risk
same,"non-CV death, % of patients",[1]; [6],5.6%
same,"non-CV death, incidence rate per 1000 years at risk",[1]; [6],9.2 per 1000 years at risk
same,proportion of patients with CV death contributing to the 3P-MACE,[1]; [6],4.2%
same,proportion of patients with CV death contributing to the 4P-MACE,[1]; [6],4.1%
same,proportion of patients with hospitalisation for unstable angina pectoris contributing to the 4P-MACE,[1]; [6],1.8%
same,proportion of patients with non-fatal MI contributing to the 3P-MACE,[1]; [6],4.6%
same,proportion of patients with non-fatal MI contributing to the 4P-MACE,[1]; [6],4.3%
same,proportion of patients with non-fatal stroke contributing to the 3P-MACE,[1]; [6],3.4%
same,proportion of patients with non-fatal stroke contributing to the 4P-MACE,[1]; [6],3.3%
same,"Patients with maintained glycemic control (HbA1c ≤7.0%), Number of Subjects",[1]; [7],554
same,"Patients with maintained glycemic control (HbA1c ≤7.0%), Subjects (%)",[1]; [7],18.5%
same,"Patients with ≤2% weight gain, Number of Subjects",[1]; [7],699
same,"Patients with ≤2% weight gain, Subjects (%)",[1]; [7],23.3%
same,"Secondary composite of treatment sustainability (on treatment, HbA1c ≤7.0%, no rescue, no moderate/severe hypoglycemic episodes, no >2% weight gain), Number of Subjects",[1]; [8],305
same,"Secondary composite of treatment sustainability (second key secondary endpoint), Subjects (%)",[1]; [8],10.2%
same,"first intake of rescue medication, incidence rate per 1000 years at risk",[1]; in vivo,115.5 per 1000 years at risk
same,rate of patients who used rescue medication,[1]; in vivo,47.1%
same,"All-cause mortality, Incidence Rate per 1000 PY",[1]; median follow-up 6.25 years,18.4 per 1000 PY
same,"All-cause mortality, Number of Subjects",[1]; median follow-up 6.25 years,336
same,"All-cause mortality, Subjects (%)",[1]; median follow-up 6.25 years,(11.2) %
same,"HHF or CV death, Incidence Rate per 1000 PY",[1]; median follow-up 6.25 years,13.4 per 1000 PY
same,"HHF or CV death, Number of Subjects",[1]; median follow-up 6.25 years,234
same,"HHF or CV death, Subjects (%)",[1]; median follow-up 6.25 years,(7.8) %
same,"Secondary CV composite (cardiovascular death, non-fatal MI, non-fatal stroke and hospitalization for unstable angina; 4P-MACE), Number of Subjects",[1]; median follow-up 6.25 years,401
same,"Primary CV composite (cardiovascular death, non-fatal MI, non-fatal stroke; 3P-MACE), Number of Subjects","[1]; median follow-up 6.25 years, added to standard of care",362
same,"All-cause mortality, Subjects (%)",[1]; [9],12.3%
same,"HHF or CV death, Subjects (%)",[1]; [9],7.8%
same,weight change (in words),[1]; over time,initial numerical weight increase
Cn1c(=O)cc(N2CCC[C@@H](N)C2)n(Cc2ccccc2C#N)c1=O [alogliptin],effect on major adverse CV event (MACE) outcomes (in words),[2],neutral effect
N#C[C@@H]1C[C@@H]2C[C@@H]2N1C(=O)[C@@H](N)C12CC3CC(CC(O)(C3)C1)C2 [saxagliptin],effect on major adverse CV event (MACE) outcomes (in words),[2],neutral effect
N[C@@H](CC(=O)N1CCn2c(nnc2C(F)(F)F)C1)Cc1cc(F)c(F)cc1F [sitagliptin],effect on major adverse CV event (MACE) outcomes (in words),[2],neutral effect
